Data from ChEMBL document CHEMBL6127124, “Structure-Activity Relationships and Discovery of (S)-5-(tert-Butyl)-11-(difluoromethoxy)-9-methoxy-2-oxo-1,2,5,6-tetrahydropyrido[2',1':2,3]imidazo[4,5-h]quinoline-3-carboxylic Acid (AB-161), a Novel Orally Available and Liver-Centric HBV RNA Destabilizer” (J Med Chem, 2024).

Key:
[1] = Drug concentration in CD-1 mouse liver at 10 mg/kg, po measured for 24 hrs by LC-MS/MS analysis; assay type: ADME, organism-based; settings: read-out: Ct
[2] = test system: Hepatitis B virus; test: Antiviral activity against HBV genotype D in immuno-competent C57BL/6 mouse model of chronic HBV assessed as log10 reduction in HBsAg production at 10 mg/kg, po qd for 7 days measured 24 hrs post-last dose by EIA (reference value: 0.98); assay type: functional; settings: time 8 day
[3] = Metabolic stability in Beagle dog liver microsomes assessed as clearance at 0.3 uM preincubated for 5 mins followed by NADPH addition measured upto 60 mins by LC-MS/MS analysis; assay type: ADME, Canis lupus familiaris, Microsome; settings: read-out: CLH
[4] = Ratio of drug concentration in liver to plasma of CD-1 mouse at 10 mg/kg, po measured for 24 hrs by LC-MS/MS analysis; assay type: ADME, organism-based; settings: liver and plasma
[5] = test system: Hepatitis B virus; test: Antiviral activity against HBV genotype D in immuno-competent C57BL/6 mouse model of chronic HBV assessed as log10 reduction in HBsAg production at 3 mg/kg, po qd for 7 days measured 24 hrs post-last dose by EIA (reference value: 0.67); assay type: functional; settings: time 8 day
[6] = Ratio of total drug concentration in liver to plasma in CD-1 mouse at 0.2 mg/kg, po measured for 24 hrs by LC-MS/MS analysis; assay type: ADME, organism-based; settings: CD-1, mouse, liver and plasma
[7] = Drug concentration in CD-1 mouse kidney at 10 mg/kg, po measured for 24 hrs by LC-MS/MS analysis; assay type: ADME, organism-based; settings: read-out: Ct
[8] = Selectivity ratio of drug concentration in liver in CD-1 mouse at 0.2 mg/kg, po measured for 12 hrs to EC90 for antiviral activity against HBV infected in human HepG2.2.15 cells assessed as reduction in HBsAg level; assay type: ADME, organism-based; settings: in vivo
[9] = target: T1, Cytochrome P450 3A4 (Homo sapiens, UniProt P08684); test: Inhibition of CYP3A4 in human liver microsomes using testosterone as substrate preincubated for 30 min followed by NADPH addition measured after 12 mins by LC-MS/MS analysis; assay type: ADME, Microsome
T1 sequence (P08684 whole entry): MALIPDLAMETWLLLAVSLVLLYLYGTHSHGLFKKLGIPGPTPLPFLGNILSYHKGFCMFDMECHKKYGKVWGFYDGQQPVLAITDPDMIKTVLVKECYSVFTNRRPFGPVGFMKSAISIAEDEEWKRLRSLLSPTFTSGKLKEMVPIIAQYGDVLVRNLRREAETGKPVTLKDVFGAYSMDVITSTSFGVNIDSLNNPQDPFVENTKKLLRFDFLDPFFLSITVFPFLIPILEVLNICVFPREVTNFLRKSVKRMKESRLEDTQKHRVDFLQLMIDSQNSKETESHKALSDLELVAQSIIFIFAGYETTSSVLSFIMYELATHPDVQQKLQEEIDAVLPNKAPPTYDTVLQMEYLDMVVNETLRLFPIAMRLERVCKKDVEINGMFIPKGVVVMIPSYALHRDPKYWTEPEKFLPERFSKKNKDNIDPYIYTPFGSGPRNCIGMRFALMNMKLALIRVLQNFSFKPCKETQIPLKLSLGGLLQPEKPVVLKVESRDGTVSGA

[10] = test system: Hepatitis B virus; test: Antiviral activity against HBV genotype D in immuno-competent C57BL/6 mouse model of chronic HBV assessed as log10 reduction in serum HBsAg production at 0.3 mg/kg, po qd for 14 days measured 24 hrs post-last dose by EIA relative to control; assay type: functional; settings: time 15 day
[11] = target: T1, Cytochrome P450 3A4; test: Inhibition of CYP3A4 in human liver microsomes using midazolam as substrate preincubated for 30 min followed by NADPH addition measured after 12 mins by LC-MS/MS analysis; assay type: ADME, Microsome
[12] = Selectivity ratio of drug concentration in liver in CD-1 mouse at 0.2 mg/kg, po measured for 24 hrs to EC90 for antiviral activity against HBV infected in human HepG2.2.15 cells assessed as reduction in HBsAg level; assay type: ADME, organism-based; settings: in vivo
[13] = Drug concentration in Sprague-Dawley rat kidney at 5 mg/kg, po measured for 24 hrs by LC-MS/MS analysis; assay type: ADME, organism-based; settings: read-out: Ct
[14] = Drug concentration in Sprague-Dawley rat lung at 5 mg/kg, po measured for 24 hrs by LC-MS/MS analysis; assay type: ADME, organism-based
[15] = Ratio of drug concentration in heart to plasma of Sprague-Dawley rat at 5 mg/kg, po measured for 24 hrs by LC-MS/MS analysis; assay type: ADME, organism-based
[16] = target: Cytochrome P450 2C19 (Homo sapiens, UniProt P33261); test: Inhibition of CYP2C19 in human liver microsomes using S-mephenytoin as substrate preincubated for 30 min followed by NADPH addition measured after 12 mins by LC-MS/MS analysis; assay type: ADME, Microsome
Chain of Cytochrome P450 2C19 (P33261 whole entry): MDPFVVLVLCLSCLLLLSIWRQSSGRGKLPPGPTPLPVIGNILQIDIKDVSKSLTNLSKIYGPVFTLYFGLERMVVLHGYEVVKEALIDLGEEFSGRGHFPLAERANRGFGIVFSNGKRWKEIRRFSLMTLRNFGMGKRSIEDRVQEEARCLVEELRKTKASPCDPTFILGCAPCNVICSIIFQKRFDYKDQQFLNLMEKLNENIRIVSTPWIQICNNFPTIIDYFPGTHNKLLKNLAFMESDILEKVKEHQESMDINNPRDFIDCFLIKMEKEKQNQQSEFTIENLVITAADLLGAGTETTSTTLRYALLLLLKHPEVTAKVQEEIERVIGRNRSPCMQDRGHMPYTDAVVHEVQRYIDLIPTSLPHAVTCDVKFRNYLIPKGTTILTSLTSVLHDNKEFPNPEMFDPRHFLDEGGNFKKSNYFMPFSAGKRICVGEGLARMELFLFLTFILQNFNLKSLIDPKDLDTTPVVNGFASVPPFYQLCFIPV

[17] = target: Cytochrome P450 2D6 (Homo sapiens, UniProt P10635); test: Inhibition of CYP2D6 in human liver microsomes using dextromethorphan as substrate preincubated for 30 min followed by NADPH addition measured after 12 mins by LC-MS/MS analysis; assay type: ADME, Microsome
Chain of Cytochrome P450 2D6 (P10635 whole entry): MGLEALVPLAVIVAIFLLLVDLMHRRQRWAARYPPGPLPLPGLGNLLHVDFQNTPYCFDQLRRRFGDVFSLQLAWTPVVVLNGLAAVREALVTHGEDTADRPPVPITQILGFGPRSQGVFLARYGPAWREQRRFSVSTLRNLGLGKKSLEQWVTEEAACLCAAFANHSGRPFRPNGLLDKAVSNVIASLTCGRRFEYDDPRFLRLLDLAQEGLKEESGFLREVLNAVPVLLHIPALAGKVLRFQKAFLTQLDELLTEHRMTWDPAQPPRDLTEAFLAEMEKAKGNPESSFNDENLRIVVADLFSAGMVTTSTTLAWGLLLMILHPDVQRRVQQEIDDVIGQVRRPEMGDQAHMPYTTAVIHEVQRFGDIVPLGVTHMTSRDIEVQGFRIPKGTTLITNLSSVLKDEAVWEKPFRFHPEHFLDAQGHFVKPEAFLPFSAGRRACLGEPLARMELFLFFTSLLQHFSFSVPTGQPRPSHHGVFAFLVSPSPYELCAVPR

[18] = target: Cytochrome P450 2C9 (Homo sapiens, UniProt P11712); test: Inhibition of CYP2C9 in human liver microsomes using diclofenac as substrate preincubated for 30 min followed by NADPH addition measured after 12 mins by LC-MS/MS analysis; assay type: ADME, Microsome
Chain of Cytochrome P450 2C9 (P11712 whole entry): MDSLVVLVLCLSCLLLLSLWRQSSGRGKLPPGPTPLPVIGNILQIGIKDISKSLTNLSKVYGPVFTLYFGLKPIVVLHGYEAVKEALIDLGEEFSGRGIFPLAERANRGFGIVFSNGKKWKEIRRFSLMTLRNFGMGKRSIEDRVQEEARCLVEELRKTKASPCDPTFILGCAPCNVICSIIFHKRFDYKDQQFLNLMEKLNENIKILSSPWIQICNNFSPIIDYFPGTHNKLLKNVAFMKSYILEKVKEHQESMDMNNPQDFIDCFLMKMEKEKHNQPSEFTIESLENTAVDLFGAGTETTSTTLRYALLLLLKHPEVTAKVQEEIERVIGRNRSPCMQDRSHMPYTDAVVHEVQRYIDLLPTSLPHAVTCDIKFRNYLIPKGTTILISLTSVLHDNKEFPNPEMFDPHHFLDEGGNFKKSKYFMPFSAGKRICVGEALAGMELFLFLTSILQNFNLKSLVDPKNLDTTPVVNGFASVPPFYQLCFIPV

[19] = Ratio of drug concentration in heart to plasma of CD-1 mouse at 10 mg/kg, po measured for 24 hrs by LC-MS/MS analysis; assay type: ADME, organism-based; settings: heart and plasma
[20] = Ratio of drug concentration in lung to plasma of Sprague-Dawley rat at 5 mg/kg, po measured for 24 hrs by LC-MS/MS analysis; assay type: ADME, organism-based
[21] = Drug concentration in Sprague-Dawley rat liver at 5 mg/kg, po measured for 24 hrs by LC-MS/MS analysis; assay type: ADME, organism-based; settings: read-out: Ct
[22] = test system: Hepatitis B virus; test: Antiviral activity against HBV genotype D in immuno-competent C57BL/6 mouse model of chronic HBV assessed as log10 reduction in serum HBsAg production at 30 mg/kg, po qd for 14 days measured 24 hrs post-last dose by EIA relative to control; assay type: functional; settings: time 15 day
[23] = Drug concentration in Sprague-Dawley rat plasma at 5 mg/kg, po measured for 24 hrs by LC-MS/MS analysis; assay type: ADME, organism-based; settings: read-out: Ct
[24] = Ratio of drug concentration in lung to plasma of CD-1 mouse at 10 mg/kg, po measured for 24 hrs by LC-MS/MS analysis; assay type: ADME, organism-based; settings: lung and plasma
[25] = Drug concentration in Sprague-Dawley rat heart at 5 mg/kg, po measured for 24 hrs by LC-MS/MS analysis; assay type: ADME, organism-based
[26] = Drug concentration in CD-1 mouse heart at 10 mg/kg, po measured for 24 hrs by LC-MS/MS analysis; assay type: ADME, organism-based; settings: read-out: Ct
[27] = Ratio of drug concentration in kidney to plasma of Sprague-Dawley rat at 5 mg/kg, po measured for 24 hrs by LC-MS/MS analysis; assay type: ADME, organism-based; settings: kidney and plasma
[28] = AUC (0 to 24 hrs) in CD-1 mouse at 0.2 mg/kg, po measured for 24 hrs by LC-MS/MS analysis; assay type: ADME, organism-based; settings: in vivo
[29] = Drug concentration in CD-1 mouse lung at 10 mg/kg, po measured for 24 hrs by LC-MS/MS analysis; assay type: ADME, organism-based; settings: read-out: Ct
[30] = Ratio of total drug concentration in liver to plasma in CD-1 mouse at 0.2 mg/kg, po measured for 12 hrs by LC-MS/MS analysis; assay type: ADME, organism-based; settings: liver and plasma
[31] = Ratio of drug concentration in kidney to plasma of CD-1 mouse at 10 mg/kg, po measured for 24 hrs by LC-MS/MS analysis; assay type: ADME, organism-based; settings: kidney and plasma
[32] = in vivo, po, 5 mg/kg, 24 h, BLD = below limit of detection

COCCCOc1cc2c(nc1OC)-c1cc(=O)c(C(=O)O)cn1[C@H](C(C)C)C2
concentration at 24 h [1]: 87 ng/g
log(activity) [2]: 0.7
microsomal CLint at 0.3 µM [3]: 4 µL/min/mg
Kp at 24 h [4]: 3
log(activity) [5]: 0.68

COc1cc(OC(F)F)c2nc3c(n2c1)C[C@@H](C(C)(C)C)c1cc(C(=O)O)c(=O)[nH]c1-3
concentration at 24 h [1]: 10400 ng/g
Kp at 24 h [6]: 116
concentration at 24 h [7]: 71 ng/g
Ratio [8]: 166
IC50 [9]: > 25 µM
log(activity) [10]: 0.13
log(activity) [2]: 0.67
microsomal CLint at 0.3 µM [3]: 6 µL/min/mg
Kp at 24 h [4]: 184
IC50 [11]: > 25 µM
Ratio [12]: 40
concentration at 24 h [13]: 5.5 ng/g
Ct [14, 32]: Bld
Ratio [15, 32]: Bld
IC50 [16]: 21 µM
log(activity) [5]: 0.8
IC50 [17]: > 25 µM
IC50 [18]: 22 µM
Kp at 24 h [19]: 0.3
Ratio [20, 32]: Bld
concentration at 24 h [21]: 13900 ng/g
log(activity) [22]: 0.94
concentration at 24 h [23]: 0.7 ng/g
Kp at 24 h [24]: 0.4
Ct [25, 32]: Bld
concentration at 24 h [26]: 15 ng/g
Kp at 24 h [27]: 7.9
AUC(0-t) at 24 h [28]: 148 ng·h/mL
concentration at 24 h [29]: 25 ng/g
Kp at 12 h [30]: 284
Kp at 24 h [31]: 1.3

CC(C)(C)[C@@H]1Cc2c(nc3c(C(F)(F)F)cc(C4CC4)cn23)-c2[nH]c(=O)c(C(=O)O)cc21
concentration at 24 h [1]: 5740 ng/g
Kp at 24 h [6]: 97
concentration at 24 h [7]: 23 ng/g
Ratio [8]: 572
IC50 [9]: > 25 µM
log(activity) [10]: 0.35
Kp at 24 h [4]: 67
IC50 [11]: > 25 µM
Ratio [12]: 51
concentration at 24 h [13]: 6 ng/g
concentration at 24 h ([14]; Sprague-Dawley, lung, read-out: Ct): 5 ng/g
Kp at 24 h ([15]; Sprague-Dawley, heart and plasma): 0.2
IC50 [16]: 22 µM
IC50 [17]: > 25 µM
IC50 [18]: 21 µM
Kp at 24 h [19]: 0.2
Kp at 24 h ([20]; Sprague-Dawley, lung and plasma): 0.7
concentration at 24 h [21]: 6140 ng/g
log(activity) [22]: 1.35
concentration at 24 h [23]: 6.7 ng/g
Kp at 24 h [24]: 0.4
concentration at 24 h ([25]; Sprague-Dawley, heart, read-out: Ct): 1.3 ng/g
concentration at 24 h [26]: 15 ng/g
Kp at 24 h [27]: 0.9
AUC(0-t) at 24 h [28]: 273 ng·h/mL
concentration at 24 h [29]: 35 ng/g
Kp at 12 h [30]: 120
Kp at 24 h [31]: 0.3
